pKi: −log10 of the molar value.

By pKi is commonly meant the Ki on a negative log10 scale, so that one unit is a factor of ten. Read a low pKi as a large Ki. Usually melting point stands for the temperature of the solid-liquid transition.

In data set [1] the target is T1, ETB receptors (Cavia porcellus, UniProt H0VTF3).
T1 construct: Guinea pig cerebella were homogenized in a Potter-Elvejhem homogenizer; from tissue; host or cells: guinea pig cerebellum membranes
T1 sequence (H0VTF3 27-415): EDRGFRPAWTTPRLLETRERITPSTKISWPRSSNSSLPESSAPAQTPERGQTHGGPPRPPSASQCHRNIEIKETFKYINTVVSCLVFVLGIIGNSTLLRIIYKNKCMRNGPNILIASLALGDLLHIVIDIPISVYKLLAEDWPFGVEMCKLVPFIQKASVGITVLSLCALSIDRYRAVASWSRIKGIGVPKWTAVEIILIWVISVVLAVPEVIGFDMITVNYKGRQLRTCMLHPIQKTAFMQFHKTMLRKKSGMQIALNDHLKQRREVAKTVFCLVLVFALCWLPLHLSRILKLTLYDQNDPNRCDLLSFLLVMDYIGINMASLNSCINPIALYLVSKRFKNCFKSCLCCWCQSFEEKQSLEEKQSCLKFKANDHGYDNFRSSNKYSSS
Nature of the data set: ETB receptor binding assay ([125I]-RZ3, guinea pig cerebellar membranes). The settings on record: 25 pM [125I]-RZ3, 25° C., 30 min.
Method: Guinea pig cerebella were homogenized in a Potter-Elvejhem homogenizer and [lacuna] obtained by differential centrifugation at 1000×g for 10 min and repeated centrifugation of the supernatant at 20,000×g for 10 min.

The target in data set [2] is T2, Cloned human ETA receptor (Homo sapiens, UniProt P25101).
T2 construct: expressed in transfected cells; host or cells: CHO cells
T2 sequence (P25101 21-427): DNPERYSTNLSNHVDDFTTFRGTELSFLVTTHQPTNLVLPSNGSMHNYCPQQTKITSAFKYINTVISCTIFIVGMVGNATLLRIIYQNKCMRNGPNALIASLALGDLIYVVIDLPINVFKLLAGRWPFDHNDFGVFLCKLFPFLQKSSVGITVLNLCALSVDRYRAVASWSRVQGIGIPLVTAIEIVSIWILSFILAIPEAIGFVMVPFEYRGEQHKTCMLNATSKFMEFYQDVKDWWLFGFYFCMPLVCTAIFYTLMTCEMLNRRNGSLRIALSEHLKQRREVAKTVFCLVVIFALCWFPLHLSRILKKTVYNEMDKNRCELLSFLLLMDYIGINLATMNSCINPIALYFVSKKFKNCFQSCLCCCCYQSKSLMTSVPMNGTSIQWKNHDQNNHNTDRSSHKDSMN
Nature of the data set: ETA receptor binding assay ([125I]-ET1, membranes of CHO cells). The settings on record: 25 pM [125I]-ET1, 25° C., 30 min. The protocol:
Cloned human ETA receptor-expressing CHO cells and guinea pig cerebellar membranes with >60% ETB compared with ETA receptors were used for binding studies.
The ETA receptor-expressing CHO cells were grown in F12 medium containing 10% fetal calf serum, 1% glutamine, 100 U/ml penicillin and 0.2% streptomycin (Gibco BRL, Gaithersburg, Md., USA).
After 48 h, the cells were washed with PBS and incubated with 0.05% trypsin-containing PBS for 5 min. Neutralization was then carried out with F12 medium, and the cells were collected by centrifugation at 300×g. To lyze lyse the cells, the pellet was briefly washed with lysis buffer (5 mM Tris-IICl, pII 7.4 with 10% glycerol) and then incubated at a concentration of 10^7 cells/ml of lysis buffer at 4° C. for 30 min. The membranes were centrifuged at 20,000×g for 10 min, and the pellet was stored in liquid nitrogen.
For the ETA and ETB receptor binding assay, the membranes were suspended in incubation buffer (50 mM Tris-HCl, pH 7.4 with 5 mM MnCl2, 40 μg/ml bacitracin and 0.2% BSA) at a concentration of 50 μg of protein per assay mixture and incubated with 25 pM [125I] [^125I]-ET1 (ETA receptor assay) or 25 pM [125I] [^125I]-RZ3 (ETB receptor assay) in the presence and absence of test substance at 25° C. The nonspecific binding was determined using 10^--7 10^−7 M ET1. After 30 min, the free and bound radioligand were separated by filtration through GF/B glass fiber filters (Whatman, England) on a Skatron cell collector (Skatron, Lier, Norway) and the filters were washed with ice-cold Tris-HCl buffer, pH 7.4 with 0.2% BSA. The radioactivity collected on the filters was quantified using a Packard 2200 CA liquid scintillation counter.

As to `COc1cc(OC)nc(OC(C(=O)O)C(OC)(c2ccccc2)c2ccccc2)n1` (stereo not drawn) [Compound I-2], the pKi in data set [1] was 7.47. `CCOC(c1ccccc1)(c1ccccc1)C(Oc1nc(OC)cc(OC)n1)C(=O)O` (stereo not drawn) [Compound I-4] showed a pKi in data set [1] of 5.60. As to `COc1cc(OC)nc(OC(C(=O)O)C(OC(C)C)(c2ccccc2)c2ccccc2)n1` (stereo not drawn) [Compound I-5], the pKi is 7.92 in data set [2] and 6.80 in data set [1]. `CCCOC(c1ccccc1)(c1ccccc1)C(Oc1nc(OC)cc(OC)n1)C(=O)O` (stereo not drawn) [Compound I-12] had a pKi in data set [1] of 5.77.

As to `COc1cc(OC)nc(OC(C(=O)O)C(OCCCC(C)C)(c2ccccc2)c2ccccc2)n1` (stereo not drawn) [Compound I-23], the pKi in data set [2] was 6.68; in data set [1], 5.96.

With `COc1cc(OC)nc(OC(C(=O)O)C(OCC2CC2)(c2ccccc2)c2ccccc2)n1` (stereo not drawn) [Compound I-26], the pKi in data set [2] is 7.64; in data set [1] it was 5.70. Turning to `COc1cc(OC)nc(OC(C(=O)O)C(Oc2ccccc2)(c2ccccc2)c2ccccc2)n1` (stereo not drawn) [Compound I-29], the pKi is 7.07 in data set [2] and 6.74 in data set [1]. For `COc1cc(OC)nc(OC(C(=O)O)C(OCc2ccccc2)(c2ccccc2)c2ccccc2)n1` (stereo not drawn) [Compound I-47] the same measures were 6.82 and 5.82. The compound `COc1nc(OC(C(=O)O)C(OC)(c2ccccc2)c2ccccc2)nc2c1CCO2` (stereo not drawn) [Compound I-87] gave a pKi in data set [2] of 9.00.

As to `COc1nc(OC(C(=O)O)C(OC)(c2ccccc2)c2ccccc2)nc2c1CCC2` (stereo not drawn) [Compound I-96], the pKi in data set [2] was 9.22; in data set [1] it was 7.25.

In turn, `COc1cc(C)nc(OC(C(=O)O)C(OC)(c2ccccc2)c2ccccc2)n1` (stereo not drawn) [Compound I-103] had a pKi in data set [2] of 9.40. With `COc1cc(OC)nc(OC(C(=O)O)C(SC)(c2ccccc2)c2ccccc2)n1` (stereo not drawn) [Compound I-107], the pKi was 8.52 in data set [2] and 6.31 in data set [1]. Turning to `COc1nc(OC(C(=O)OCc2ccccc2)C(OC)(c2ccccc2)c2ccccc2)nc2c1CCC2` (stereo not drawn) [Example 12, Benzyl 3-methoxy-2-(4-methoxy-6,7-dihydro-5H-cyclopentapyrimidin-2-yloxy)-3,3-diphenylpropionate], the melting point was in the range of 143 to 147 °C. For `COc1nc(OC(C(=O)O)C(OC)(c2ccccc2)c2ccccc2)nc2c1ccn2C` (stereo not drawn) [I.89], the pKi in data set [2] is 7.07; in data set [1], 5.03. Take `COc1cc(OC)nc(OC(C(=O)O)C2(OC)c3ccccc3-c3ccccc32)n1` (stereo not drawn) [II-1]: the melting point is 96 to 98 °C. Also, the pKi in data set [2] is 7.55. For the same compound, in data set [1], the pKi was 5.64. Take `COc1cc(OC)nc(OC(C(=O)O)C2(OC)c3ccccc3CCc3ccccc32)n1` (stereo not drawn) [II-3]: the pKi in data set [2] was 6.97; in data set [1], 5.14.
